Laboratory results as given in patent US9951366B2, “Cell-free protein synthesis method and device using a eukaryotic cell lysate in the presence of a caspase inhibitor and the use of a caspase inhibitor for increasing the yield and/or the stability of the synthesized proteins in such a method” (Fraunhofer-Gesellschaft zur Foerderung der angewandten …, priority 2013, dated 2018).
Peptide text beside a SMILES is read from it. * marks the point of attachment. Cbz = O=C(OCc1ccccc1)*; CH2F = FC*

Columns and labels:
[1] = tested on: cell-free eukaryotic translation system on the basis of a cell extract from Spodoptera frugiperda (Sf21) insect cells; experiment: Cell-free expression of Mel-Hb-EGF-eYFP, protein quantity in translation mixture and vesicular fraction; format: biochemical
Method: The three proteins were each expressed in the batch and dialysis systems without (−) and with (+) the addition of the caspase inhibitor (CI) in the presence of ^14C-leucine for 48 h (27° C.; 600 rpm, Eppendorf Thermomixer Comfort) and analyzed as in example 1. […] The expression of each of the three membrane proteins (ETB, 49.3 kDa; Hb-EGF, 51 kDa; bacteriorhodopsin, 26.9 kDa) was able to be increased in the dialysis system (comparison of the dialysis batches +CI and −CI) with the addition of the caspase inhibitor by approximately 100% (FIG. 2).
Here, the intention was to investigate whether the increase in the total protein quantity is also associated with an increase in the quantity of membrane protein translocated and integrated into the lipid layer of the vesicles. For this purpose, the translation mixtures of Mel-Hg-EGF-eYFP were separated by means of a centrifuging step into the supernatant fluid (SN) and the vesicular fraction (VF). Aliquots (5 μl) of these samples were used for determining the quantity of de novo synthesized protein or were investigated with regard to their fluorescence properties (FIG. 4).
FIG. 4A: The synthesis of Mel-Hb-EGF-eYFP was carried out in the batch (left) and dialysis system (right) in the absence (−) and in the presence (+) of DTT with the addition of the caspase inhibitor (Z-VAD-FMK) over 48 h at 27° C. and 600 rpm. Following the synthesis, the mixtures were separated by means of a centrifuging step into the supernatant fluid (SN) and the vesicular fraction (VF). For analysis of the fluorescence intensity of the samples, aliquots of the fractions (5 μl) were each diluted in 25 μl PBS and 25 μl of this mixture was pipetted to each cavity of the Ibidi slide and measured. Excitation of the samples was carried out at 488 nm with a phosphorimager (Typhoon TRIO+ Imager, GE Healthcare) and the emission measured at 526 nm.

[2] = tested on: cell-free eukaryotic translation system on the basis of a cell extract from Spodoptera frugiperda (Sf21) insect cells; experiment: Cell-free synthesis of SII-eYFP, fluorescence intensity (phosphorimager), Example 1; format: biochemical; conditions: dialysis system after 48 h, −V, +CI versus −CI, densitometric evaluation
Method: The expression of the model protein was analyzed in the batch system and the dialysis system (50 μl reaction chamber; 1000 μl feeding chamber; cut-off of the membrane=10 kDa) over a period of 48 h. The translation mixtures were each incubated in the batch system and the dialysis system with (+) and without (−) insect cell vesicles (V) and with (+) and without (−) caspase inhibitor (CI) (at 27° C. and 600 rpm). The protein synthesis was carried out in the presence of the radioactively labeled amino acid ^14C-leucine in order to be able to determine the quantity of de novo synthesized target protein by means of hot TCA precipitation and scintillation measurement. The translation reactions were interrupted at particular time points (0 h, 2 h, 4 h, 24 h and 48 h) and analyzed as follows: 5 μl of the mixture was precipitated in hot TCA or ice-cold acetone in each case. A further 5 μl was resuspended in 25 μl PBS. The remaining sample volume was separated by means of a centrifuging step into the supernatant fluid (SN) and the vesicular fraction (VF). […] The samples resuspended in PBS were examined in the phosphorimager system (Typhoon TRIO+ imager, GE Healthcare) for their fluorescence intensity. For this purpose, 25 μl samples were pipetted into each cavity of the Ibidi slides and measured, the excitation of the samples taking place at 488 nm and the emission being measured at 526 nm.

What does the source list for `COC(=O)C[C@H](NC(=O)[C@H](C)NC(=O)[C@@H](NC(=O)OCc1ccccc1)C(C)C)C(=O)CF` [Z-VAD-FMK, benzyloxycarbonyl-Val-Ala-Asp-[O-methyl]-fluoromethylketone] (Cbz-Val-Ala-Asp(OMe)-CH2F)?
total protein quantity of Mel-Hb-EGF-eYFP ([1]; batch 48 h +CI): 12.1 µg/mL; Mel-Hb-EGF-eYFP in the vesicular fraction of the lysate ([1]; batch 48 h −DTT +CI): 6.5 µg/mL; total protein quantity of Mel-Hb-EGF-eYFP ([1]; dialysis 48 h +CI): 47.6 µg/mL; increase in total protein quantity of Mel-Hb-EGF-eYFP ([1]; dialysis 48 h +CI vs batch 48 h +CI): 300%; increase in total protein quantity of Mel-Hb-EGF-eYFP ([1]; dialysis 48 h +CI vs dialysis 48 h −CI): 130%; Mel-Hb-EGF-eYFP in the vesicular fraction of the lysate ([1]; dialysis 48 h −DTT +CI): 31.4 µg/mL; fluorescence signal of SII-eYFP, fold more intense [2]: 3.7 times
